Data published in patent US12024531B2, “Immunoproteasome inhibitors” (Principia Biopharma Inc., priority 2017, dated 2024).

Experiments:
Type in all cases: biochemical
[1] = biological target: constitutive proteasome β5c subunit (Homo sapiens, UniProt P28074); test: Caliper-based proteasome enzymatic activity assay, β5c; conditions: human recombinant constitutive proteasome 0.3 nM, FAM peptide substrate 1 μM, rt 3 h
[2] = biological target: immunoproteasome LMP7/B5i subunit (Homo sapiens, UniProt P28062); test: Caliper-based proteasome enzymatic activity assay, LMP7; conditions: human recombinant immunoproteasome 0.3 nM, FAM peptide substrate 1 μM, rt 3 h
[3] = biological target: immunoproteasome LMP2 subunit (Homo sapiens, UniProt P28065); test: Caliper-based proteasome enzymatic activity assay, LMP2; conditions: human recombinant immunoproteasome 0.3 nM, FAM peptide substrate 1 μM, rt 2 h

SMILES | IC50 [1] | IC50 [2] | IC50 [3]
CN(C(=O)C(C#N)=Cc1cccc(OCCC(=O)N[C@@H](Cc2ccccc2)B(O)O)c1)c1ccccc1 [Example 22, (R)-(1-(3-(3-(2-cyano-3-(methyl(phenyl)amino)-3-oxoprop-1-en-1-yl)phenoxy)propanamido)-2-phenylethyl)boronic Acid] | 27 nM | 3 nM | 100 nM
N#CC(=Cc1cccc(OCCC(=O)N[C@@H](Cc2coc3ccccc23)B(O)O)c1)c1ccccn1 [Example 23, (R)-(2-(benzofuran-3-yl)-1-(3-(3-(2-cyano-2-(pyridin-2-yl)vinyl)phenoxy)propanamido)ethyl)boronic Acid] | 8 nM | 0.8 nM | > 5000 nM
CN(C)C(=O)C(C#N)=Cc1cccc(CCCC(=O)N[C@@H](Cc2ccccc2)B(O)O)c1 [Example 24, (R)-(1-(4-(3-(2-cyano-3-(dimethylamino)-3-oxoprop-1-en-1-yl)phenyl)butanamido)-2-phenylethyl)boronic Acid] | 1930 nM | 12 nM | 1890 nM
N#CC(=Cc1cccc(CCCC(=O)N[C@@H](Cc2ccccc2)B(O)O)c1)n1cncn1 [Example 25, (R)-(1-(4-(3-(2-cyano-2-(1H-1,2,4-triazol-1-yl)vinyl)phenyl)butanamido)-2-phenylethyl)boronic Acid] | 4150 nM | 8 nM | 3000 nM
COc1ccc(C=C(C#N)C(=O)N(C)C)cc1OCCC(=O)N[C@@H](Cc1ccccc1)B(O)O [Example 26, (R)-(1-(3-(5-(2-cyano-3-(dimethylamino)-3-oxoprop-1-en-1-yl)-2-methoxyphenoxy)propanamido)-2-phenylethyl)boronic Acid] | 34 nM | 4 nM | 310 nM
CN(C)C(=O)C(C#N)=Cc1ccc(F)c(OCCC(=O)N[C@@H](Cc2ccccc2)B(O)O)c1 [Example 27, (R)-(1-(3-(5-(2-cyano-3-(dimethylamino)-3-oxoprop-1-en-1-yl)-2-fluorophenoxy)propanamido)-2-phenylethyl)boronic Acid] | 25 nM | 3 nM | 160 nM
N#CC(=Cc1ccc(F)c(OCCC(=O)N[C@@H](Cc2ccccc2)B(O)O)c1)c1ccccn1 [Example 28, (R)-(1-(3-(5-(2-cyano-2-(pyridin-2-yl)vinyl)-2-fluorophenoxy)propanamido)-2-phenylethyl)boronic Acid] | 34 nM | 2 nM | 49 nM
COc1ccc(C=C(C#N)c2ccccn2)cc1OCCC(=O)N[C@@H](Cc1ccccc1)B(O)O [Example 29, (R)-(1-(3-(5-(2-cyano-2-(pyridin-2-yl)vinyl)-2-methoxyphenoxy)propanamido)-2-phenylethyl)boronic Acid] | 36 nM | 6 nM | 17 nM
N#CC(=Cc1cccc(OCCC(=O)N[C@@H](Cc2ccccc2)B(O)O)c1)C(=O)N1CCC1 [Example 30, (R)-(1-(3-(3-(3-(azetidin-1-yl)-2-cyano-3-oxoprop-1-en-1-yl)phenoxy)propanamido)-2-phenylethyl)boronic Acid] | 120 nM | 4 nM | 150 nM
CCNC(=O)C(C#N)=Cc1cccc(OCCC(=O)N[C@@H](Cc2ccccc2)B(O)O)c1 [Example 31, (R)-(1-(3-(3-(2-cyano-3-(ethylamino)-3-oxoprop-1-en-1-yl)phenoxy)propanamido)-2-phenylethyl)boronic Acid] | 120 nM | 4 nM | 270 nM
N#CC(=Cc1cccc(OCCC(=O)N[C@@H](Cc2ccccc2)B(O)O)c1)C(=O)N1CCN(C2COC2)CC1 [Example 32, (R)-(1-(3-(3-(2-cyano-3-(4-(oxetan-3-yl)piperazin-1-yl)-3-oxoprop-1-en-1-yl)phenoxy)propanamido)-2-phenylethyl)boronic Acid] | 60 nM | 4 nM | 180 nM
N#CC(=Cc1cccc(OCCC(=O)N[C@@H](Cc2ccccc2)B(O)O)c1)c1ccc(C(F)(F)F)cn1 [Example 33, (R)-(1-(3-(3-(2-cyano-2-(5-(trifluoromethyl)pyridin-2-yl)vinyl)phenoxy)propanamido)-2-phenylethyl)boronic Acid] | 95 nM | 5 nM | 100 nM
N#CC(=Cc1cccc(OCCC(=O)N[C@@H](Cc2ccccc2)B(O)O)c1)c1ncccc1F [Example 34, (R)-(1-(3-(3-(2-cyano-2-(3-fluoropyridin-2-yl)vinyl)phenoxy)propanamido)-2-phenylethyl)boronic Acid] | 80 nM | 8 nM | 120 nM
N#CC(=Cc1cccc(CCOC(=O)N[C@@H](Cc2ccccc2)B(O)O)c1)c1ccccn1 [Example 36, (R)-(1-(((3-(2-cyano-2-(pyridin-2-yl)vinyl)phenethoxy)carbonyl)amino)-2-phenylethyl)boronic Acid] | 320 nM | 8 nM | 3540 nM
CN(C)C(=O)C(C#N)=Cc1cccc(OCCC(=O)N[C@@H](Cc2ccccc2)B(O)O)c1F [Example 37, (R)-(1-(3-(3-(2-cyano-3-(dimethylamino)-3-oxoprop-1-en-1-yl)-2-fluorophenoxy)propanamido)-2-phenylethyl)boronic Acid] | 495 nM | 16.8 nM | 223 nM
CN(C)C(=O)C(C#N)=Cc1ccc(Cl)c(OCCC(=O)N[C@@H](Cc2ccccc2)B(O)O)c1Cl [Example 38, (R)-(1-(3-(2,6-dichloro-3-(2-cyano-3-(dimethylamino)-3-oxoprop-1-en-1-yl)phenoxy)propanamido)-2-phenylethyl)boronic Acid] | 162 nM | 7.3 nM | 223 nM
N#CC(=Cc1ccc(Cl)c(OCCC(=O)N[C@@H](Cc2ccccc2)B(O)O)c1Cl)c1ccccn1 [Example 39, (R)-(1-(3-(2,6-dichloro-3-(2-cyano-2-(pyridin-2-yl)vinyl)phenoxy)propanamido)-2-phenylethyl)boronic Acid] | 136 nM | 14 nM | 325 nM
N#CC(=Cc1cccc(OCCC(=O)N[C@@H](Cc2ccccc2)B(O)O)c1F)c1ccccn1 [Example 40, (R)-(1-(3-(3-(2-cyano-2-(pyridin-2-yl)vinyl)-2-fluorophenoxy)propanamido)-2-phenylethyl)boronic Acid] | 70 nM | 8.5 nM | 73.9 nM
CN(C)C(=O)C(C#N)=Cc1cc(F)cc(OCCC(=O)N[C@@H](Cc2ccccc2)B(O)O)c1 [Example 41, (R)-(1-(3-(3-(2-cyano-3-(dimethylamino)-3-oxoprop-1-en-1-yl)-5-fluorophenoxy)propanamido)-2-phenylethyl)boronic Acid] | 176 nM | 4.1 nM | 320 nM
CN(C)C(=O)C(C#N)=Cc1cc(OCCC(=O)N[C@@H](Cc2ccccc2)B(O)O)ccc1F [Example 42, (R)-(1-(3-(3-(2-cyano-3-(dimethylamino)-3-oxoprop-1-en-1-yl)-4-fluorophenoxy)propanamido)-2-phenylethyl)boronic Acid] | 192 nM | 6 nM | 393 nM
N#CC(=Cc1cc(OCCC(=O)N[C@@H](Cc2ccccc2)B(O)O)ccc1F)c1ccccn1 [Example 43, (R)-(1-(3-(3-(2-cyano-2-(pyridin-2-yl)vinyl)-4-fluorophenoxy)propanamido)-2-phenylethyl)boronic Acid] | 39.4 nM | 2.9 nM | 122 nM
